SMILES strings stand for the structures. “Also recorded” adds a separate entry of the source.

The subject of the assay is rat visual cortex. The assay can be described thus: LTP in visual cortex slice. The settings on record: rat primary visual cortex brain slices; fEPSP amplitude after theta burst stimulation; drug infused 20 minutes before LTP induction. The source says:
The effect of the Ampakine, i.e. benzo[1,2,5]oxadiazol-5-yl-piperidin-1-yl-methanone, in the visual cortex was investigated using brain slices prepared from primary visual cortex to determine if this compound facilitates the induction of long-term potentiation (LTP). LTP is a well established cellular model for synaptic plasticity and the encoding of information. The visual cortex is one synapse removed from the eye and integrates visual signals generated by the retina. It is thus essential for decoding, processing and transforming visual inputs originating in the eye, and proper visual cortical function is necessary for normal vision.
Following decapitation of the anesthetized rat, the brain was rapidly removed and immersed in ice-cold artificial cerebrospinal fluid (ACSF) containing (in mM) NaCl 124, KCl 3, KH2PO4 1.25, CaCl2 3.4, MgSO4 2.5, NaHCO3 26, and D-glucose 10. A block of visual cortex was created by removing the frontal ⅔ portion of the brain and the cerebellum. […] This is repeated 2 additional times with a 1 minute inter-train interval, and the level of LTP was recorded for at least 30 min. Changes in amplitude of the synaptic response were used to measure the extent of LTP, since the amplitude was determined to be the more consistent parameter than the slope of the response. […] LTP was recorded for at least 30 min after induction.

In the case of `O=C(c1ccc2nonc2c1)N1CCCCC1` [benzo[1,2,5]oxadiazol-5-yl-piperidin-1-yl-methanone], the “enhancement of visual cortex long-term potentiation (LTP)” value is “dose-dependent facilitation of long-term potentiation in rat visual cortex; also recorded: marked and dose-dependent enhancement of visual cortex LTP”.

These data come from patent US20110257186A1, “COMPOSITIONS AND METHODS FOR TREATING VISUAL DISORDERS” (priority 2010, published 2011).
